In patent US10829487B2, “Benzylamino substituted pyridopyrimidinones and derivatives as SOS1 inhibitors” (Boehringer Ingelheim International GmbH, priority 2017, dated 2020):

Tested on: not listed separately
Test: Metabolic (microsomal) stability assay, human liver microsomes (HLM)
Assay type: in vitro ADME
Details: 1 μM test compound, 37° C.
Protocol: (§1) Metabolic (Microsomal) Stability Assay: The metabolic degradation of the test compound is assayed at 37° C. with pooled liver microsomes (mouse (MLM), rat (RLM) or human (HLM)). The final incubation volume of 74 μL per time point contains TRIS buffer (pH 7.5; 0.1 M), magnesium chloride (6.5 mM), microsomal protein (0.5 mg/mL for mouse/rat, 1 mg/mL for human specimens) and the test compound at a final concentration of 1 μM. Following a short preincubation period at 37° C., the reactions are initiated by addition of 8 μL beta-nicotinamide adenine dinucleotide phosphate, reduced form (NADPH, 10 mM) and terminated by transfering an aliquot into solvent after different time points. Additionally, the NADPH-independent degradation is monitored in incubations without NADPH, terminated at the last time point by addition of acetonitrile. The quenched incubations are pelleted by centrifugation (1811 g, 5 min). An aliquot of the supernatant is assayed by LC-MS/MS for the amount of parent compound. In vitro intrinsic clearance (CLint, in vitro) is calculated from the time course of the disappearance of the test drug during the microsomal incubation. Each plot is fitted to the first-order elimination rate constant as C(t)=C0*exp(−ke*t), where C(t) and C0 are the concentration of unchanged test drug at incubation time t and that at preincubation and ke is the disappearance rate constant of the unchanged drug. Subsequently, CLint, in vitro (μL min^−1·amount protein) values are converted to CLint, in vitro (mL min^−1·kg^−1) for the whole body. CLint, in vitro data are scaled up using physiological parameters. For better across species comparison the predicted clearance is expressed as percent of the liver blood flow [% QH] in the individual species. In general, high stability (corresponding to low % QH) of the compounds across species is desired.

SMILES	HLM [% QH]
Cc1nc(N[C@H](C)c2cccc3c2OCC3(F)F)c2cn(C3(C)CC3)c(=O)cc2n1 [I-101]	36 % QH
Cc1c(=O)n(C2(C)CC2)cc2c(N[C@H](C)c3cccc(C(F)F)c3F)ncnc12 [I-161]	31 % QH
Cc1c(=O)n([C@H]2C[C@@H]2C(F)F)cc2c(N[C@H](C)c3cccc(C(F)F)c3F)ncnc12 [I-165]	<24 % QH
Cc1c(=O)n(-c2cnn(C)c2)cc2c(N[C@H](C)c3cccc(C(F)F)c3F)ncnc12 [I-172]	<24 % QH

Tested on: not listed separately
Test: Metabolic (microsomal) stability assay, mouse liver microsomes (MLM)
Assay type: in vitro ADME
Details: 1 μM test compound, 37° C.
Protocol: as §1

SMILES	MLM [% QH]
Cc1nc(N[C@H](C)c2cccc3c2OCC3(F)F)c2cn(C3(C)CC3)c(=O)cc2n1 [I-101]	59 % QH
Cc1c(=O)n(C2(C)CC2)cc2c(N[C@H](C)c3cccc(C(F)F)c3F)ncnc12 [I-161]	44 % QH
Cc1c(=O)n([C@H]2C[C@@H]2C(F)F)cc2c(N[C@H](C)c3cccc(C(F)F)c3F)ncnc12 [I-165]	54 % QH
Cc1c(=O)n(-c2cnn(C)c2)cc2c(N[C@H](C)c3cccc(C(F)F)c3F)ncnc12 [I-172]	53 % QH

Biological target: CYP3A4 (Homo sapiens (Human), UniProt P08684)
Test: Time dependent inhibition of CYP3A4 assay (TDI 3A4)
Assay type: in vitro ADME
Details: hydroxy-midazolam formation after 30 min relative to 0 min preincubation; 25 uM compound; human liver microsomes; midazolam substrate
Protocol: Time Dependent Inhibition of CYP3A4 Assay (TDI 3A4):
After preincubation, the incubate is diluted 1:10 and the substrate midazolam is added for the main incubation (15 min). The main incubation is quenched with acetonitrile and the formation of hydroxy-midazolam is quantified via LC/MS-MS. The formation of hydroxy-midazolam from the 30 min preincubation relative to the formation from the 0 min preincubation is used as a readout. Values of less than 100% mean that the substrate midazolam is metabolized to a lower extend upon 30 min preincubation compared to 0 min preincubation. In general low effects upon 30 min preincubation are desired (corresponding to values close to 100%)

Sequence of CYP3A4 (P08684 whole entry): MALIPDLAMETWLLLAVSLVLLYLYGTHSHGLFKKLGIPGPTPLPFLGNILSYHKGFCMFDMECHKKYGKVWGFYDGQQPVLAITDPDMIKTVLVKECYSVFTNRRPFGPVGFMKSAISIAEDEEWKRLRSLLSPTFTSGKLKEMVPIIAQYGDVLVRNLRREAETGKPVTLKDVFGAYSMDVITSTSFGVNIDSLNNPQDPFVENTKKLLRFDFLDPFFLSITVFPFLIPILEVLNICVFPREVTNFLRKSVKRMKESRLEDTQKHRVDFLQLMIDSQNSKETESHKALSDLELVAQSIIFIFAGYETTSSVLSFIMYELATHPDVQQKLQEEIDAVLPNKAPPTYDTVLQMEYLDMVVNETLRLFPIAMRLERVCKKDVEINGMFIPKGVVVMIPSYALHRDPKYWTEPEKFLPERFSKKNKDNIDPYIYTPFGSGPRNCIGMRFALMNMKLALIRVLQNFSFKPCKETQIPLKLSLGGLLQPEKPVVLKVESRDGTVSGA

SMILES	TDI 3A4 [%]
Cc1nc(N[C@H](C)c2cccc(C(F)F)c2C)c2cn(C3(C)CC3)c(=O)cc2n1 [I-20]	93%
Cc1nc(N[C@H](C)c2cccc(C(F)F)c2C)c2cn(C3CCC3)c(=O)cc2n1 [I-22]	87%
Cc1nc(N[C@H](C)c2cccc(C(F)(F)F)c2C)c2cn(C3CCOCC3)c(=O)cc2n1 [I-49]	92%
Cc1nc(N[C@H](C)c2cccc(C(C)(F)F)c2F)c2cn(C3(CF)CC3)c(=O)cc2n1 [I-53]	84%
Cc1nc(N[C@H](C)c2cccc3c2CCC3(F)F)c2cn(C3(C)CC3)c(=O)cc2n1 [I-57]	87%
C[C@@H](Nc1ncnc2cc(=O)n(C3(C)CC3)cc12)c1cccc(C(F)(F)F)c1 [I-75]	86%
Cc1nc(N[C@H](C)c2cccc(C(C)(F)F)c2F)c2cn(C3(CF)CC3)c(=O)c(F)c2n1 [I-87]	81%
Cc1nc(N[C@H](C)c2cccc(C(F)(F)C(C)(C)O)c2F)c2cn(C3(C(F)F)CC3)c(=O)c(F)c2n1 [I-89]	83%
Cc1nc(N[C@H](C)c2cccc(C(F)F)c2C)c2cn(C3(C)CCOC3)c(=O)cc2n1 (some centres unmarked) [I-123]	87%
Cc1nc(N[C@H](C)c2cccc(C(F)(F)F)c2C)c2cn(C3(C)CCOC3)c(=O)cc2n1 (some centres unmarked) [I-126]	88%
Cc1nc(N[C@H](C)c2cccc(C(F)(F)F)c2C)c2cn(C3(c4ccccc4)CCOCC3)c(=O)cc2n1 [I-127]	97%
Cc1c(=O)n(C2(C(F)F)CC2)cc2c(N[C@H](C)c3cccc(C(F)F)c3F)ncnc12 [I-163]	82%

Tested on: not listed separately
Test: Metabolic (microsomal) stability assay, rat liver microsomes (RLM)
Assay type: in vitro ADME
Details: 1 μM test compound, 37° C.
Protocol: as §1

SMILES	RLM [% QH]
Cc1nc(N[C@H](C)c2cccc3c2OCC3(F)F)c2cn(C3(C)CC3)c(=O)cc2n1 [I-101]	<23 % QH
Cc1c(=O)n(C2(C)CC2)cc2c(N[C@H](C)c3cccc(C(F)F)c3F)ncnc12 [I-161]	<23 % QH
Cc1c(=O)n([C@H]2C[C@@H]2C(F)F)cc2c(N[C@H](C)c3cccc(C(F)F)c3F)ncnc12 [I-165]	<23 % QH
Cc1c(=O)n(-c2cnn(C)c2)cc2c(N[C@H](C)c3cccc(C(F)F)c3F)ncnc12 [I-172]	<23 % QH

Biological target: protein-protein interaction between SOS1 and KRAS G12D (Homo sapiens (Human), UniProt Q07889)
Test: KRAS::SOS1 AlphaScreen Binding Assay
Details: KRAS G12D::SOS1 AlphaScreen; measured without EDTA unless marked with an asterisk
Outline: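 Nucleotide-exchange interaction read by AlphaScreen (GSH acceptor / streptavidin donor beads, 10 μg/mL each): 10 nM KRAS G12D(1-169)-Avi, 10 μM GDP, 5 nM GST-SOS1(564-1049), 1% DMSO. Compound preincubated 30 min, then beads 60 min at RT in the dark; 11-point 1:5 series from 100 μM, duplicates; IC50 by 4-parameter logistic fit.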

Sequence of protein-protein interaction between SOS1 and KRAS G12D (Q07889 564-1049, stated change not applied): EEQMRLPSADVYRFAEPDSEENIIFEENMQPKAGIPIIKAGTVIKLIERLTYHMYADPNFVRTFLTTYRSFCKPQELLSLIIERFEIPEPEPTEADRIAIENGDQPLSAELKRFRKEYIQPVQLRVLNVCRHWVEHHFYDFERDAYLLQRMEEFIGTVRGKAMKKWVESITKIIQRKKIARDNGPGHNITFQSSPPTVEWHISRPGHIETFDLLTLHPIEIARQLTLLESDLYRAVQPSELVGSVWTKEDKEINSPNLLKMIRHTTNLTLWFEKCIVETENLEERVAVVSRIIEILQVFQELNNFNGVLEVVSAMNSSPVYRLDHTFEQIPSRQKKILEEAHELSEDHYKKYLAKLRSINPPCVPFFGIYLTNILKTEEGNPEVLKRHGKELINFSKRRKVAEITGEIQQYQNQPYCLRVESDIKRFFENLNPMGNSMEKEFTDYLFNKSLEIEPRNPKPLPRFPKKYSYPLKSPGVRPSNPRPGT

SMILES	IC50
Cc1nc(N[C@H](C)c2cccc(C(F)F)c2C)c2cn(C3(C)CCOC3)c(=O)cc2n1 (some centres unmarked) [I-123]	3 nM
Cc1nc(N[C@H](C)c2cccc(C(F)(F)F)c2C)c2cn(C3(C)CCOC3)c(=O)cc2n1 (some centres unmarked) [I-126]	5 nM
Cc1nc(N[C@H](C)c2cccc(C(F)(F)F)c2C)c2cn(C3(c4ccccc4)CCOCC3)c(=O)cc2n1 [I-127]	23 nM
Cc1c(=O)n(C2(C)CC2)cc2c(N[C@H](C)c3cccc(C(F)F)c3F)ncnc12 [I-161]	12 nM
Cc1c(=O)n(C2(C(F)F)CC2)cc2c(N[C@H](C)c3cccc(C(F)F)c3F)ncnc12 [I-163]	15 nM
Cc1c(=O)n([C@H]2C[C@@H]2C(F)F)cc2c(N[C@H](C)c3cccc(C(F)F)c3F)ncnc12 [I-165]	17 nM
Cc1c(=O)n(-c2cnn(C)c2)cc2c(N[C@H](C)c3cccc(C(F)F)c3F)ncnc12 [I-172]	14 nM

Same assay, conditions: Table 20; KRAS::SOS1 AlphaScreen (SOS1 / KRAS G12D)

SMILES	IC50
Cc1nc(N[C@H](C)c2cccc(C(F)F)c2C)c2cn(C3(C)CC3)c(=O)cc2n1 [I-20]	3 nM
Cc1nc(N[C@H](C)c2cccc(C(F)F)c2C)c2cn(C3CCC3)c(=O)cc2n1 [I-22]	6 nM
Cc1nc(N[C@H](C)c2cccc(C(F)(F)F)c2C)c2cn(C3CCOCC3)c(=O)cc2n1 [I-49]	6 nM
Cc1nc(N[C@H](C)c2cccc(C(C)(F)F)c2F)c2cn(C3(CF)CC3)c(=O)cc2n1 [I-53]	4 nM
Cc1nc(N[C@H](C)c2cccc3c2CCC3(F)F)c2cn(C3(C)CC3)c(=O)cc2n1 [I-57]	2 nM
C[C@@H](Nc1ncnc2cc(=O)n(C3(C)CC3)cc12)c1cccc(C(F)(F)F)c1 [I-75]	15 nM
Cc1nc(N[C@H](C)c2cccc(C(C)(F)F)c2F)c2cn(C3(CF)CC3)c(=O)c(F)c2n1 [I-87]	4 nM
Cc1nc(N[C@H](C)c2cccc(C(F)(F)C(C)(C)O)c2F)c2cn(C3(C(F)F)CC3)c(=O)c(F)c2n1 [I-89]	2 nM
Cc1nc(N[C@H](C)c2cccc3c2OCC3(F)F)c2cn(C3(C)CC3)c(=O)cc2n1 [I-101]	4 nM

Tested on: ERK phosphorylation in DLD-1 cells (KRAS G13D)
Test: ERK Phosphorylation Assay (AlphaLISA SureFire Ultra p-ERK1/2)
Assay type: cell-based
Details: Homo sapiens, 1 h compound, EGF 50 ng/mL 10 min, read-out: pERK
Protocol: ERK Phosphorylation Assay
Low IC50 values are indicative of high potency of the SOS1 inhibitor compounds in this assay setting.
ERK phosphorylation assays are performed using the following human cell lines: DLD-1 (ATCC CCL-221): human colon cancer with a KRAS G13D mutation;
DLD-1 cells (ATCC CCL-221) are seeded at 50,000 cells per well in/60 μL of RPMI with 10% FBS, non-essential amino acids, pyruvate and glutamax in Greiner TC 384 plates. The cells are incubated for 1 h at room temperature and then incubated overnight in an incubator at 37° C. and 5% CO2 in a humidified atmosphere. 60 nL compound solution (10 mM DMSO stock solution) is then added using a Labcyte Echo 550 device. After a 1 h incubation in the aforementioned incubator, 3 μL Epidermal Growth Factor (EGF, final concentration 50 ng/mL) is added. 10 minutes later the medium is removed, and the cells lysed by addition of 20 μL of 1.6-fold lysis buffer from the AlphaLISA SureFire Ultra pERK1/2 (Thr202/Tyr204) Assay Kit with added protease inhibitors, 100 nM trametinib+100 nM staurosporine. After 20 minutes of incubation at room temperature with shaking, 6 μL of each lysate sample is transferred to a 384-well Proxiplate and analyzed for pERK (Thr202/Tyr204) with the AlphaLISA SureFire Ultra pERK1/2 (Thr202/Tyr204) Assay Kit. 3 μL Acceptor Mix and 3 μL Donor Mix are added under subdued light and incubated for 2 h at room temperature in the dark, before the signal is measured on a Perkin Elmer Envision plate reader using 384 AlphaScreen settings for Proxiplates. Data are fitted by iterative calculation with variable hill slope. The sigmoidal curve slope is fitted using a default fitting curve to ascertain IC50 values.

SMILES	IC50
Cc1nc(N[C@H](C)c2cccc(C(F)(F)F)c2C)c2cn(C3CCOCC3)c(=O)cc2n1 [I-49]	81 nM
Cc1nc(N[C@H](C)c2cccc(C(C)(F)F)c2F)c2cn(C3(CF)CC3)c(=O)cc2n1 [I-53]	74 nM
Cc1nc(N[C@H](C)c2cccc3c2CCC3(F)F)c2cn(C3(C)CC3)c(=O)cc2n1 [I-57]	63 nM
Cc1nc(N[C@H](C)c2cccc(C(C)(F)F)c2F)c2cn(C3(CF)CC3)c(=O)c(F)c2n1 [I-87]	100 nM
Cc1nc(N[C@H](C)c2cccc3c2OCC3(F)F)c2cn(C3(C)CC3)c(=O)cc2n1 [I-101]	79 nM
Cc1nc(N[C@H](C)c2cccc(C(F)F)c2C)c2cn(C3(C)CCOC3)c(=O)cc2n1 (some centres unmarked) [I-123]	118 nM
Cc1nc(N[C@H](C)c2cccc(C(F)(F)F)c2C)c2cn(C3(C)CCOC3)c(=O)cc2n1 (some centres unmarked) [I-126]	51 nM
